Tests used:
[1] = system: rice blast pathogenic fungus (Pyricularia oryzae); type: in vivo; conditions: 5 ppm
[2] = system: Trichomonas vaginalis Ito; test: Antitrichomonas activity test using mice; type: in vivo, Trichomonas vaginalis Ito in SLC-ICR strain male mice
Text: Test Compounds: SF-1540-A' (substance SF-1540 treated with methanol). Control--Flagyl (MNZ, available from Shionogi Seiyaku K.K., Japan)=Metronidazol--1'-(2'-Hydroxyethyl)-2'-methyl-5'-nitroimidazole [drawing 1]
1. Test protozoa strain: Trichomonas vaginalis Ito
2. Host animals: SLC-ICR strain male mice of average body weight of 20 g. and 5-week age, each group consisting of 5 animals.
3. Inoculation of protozoa: Protozoa were inoculated to Bacto-Kupferberg Trichomonas base (Difco; 20% calf serum added), cultivation was conducted at 37° C. for 24 hours, propagated protozoa were collected and centrifuged at 1500 r.p.m. for 5 minutes and then washed twice with centrifugation in sterilized Locke-Ringer's solution. The supernatant was discarded and the residue was diluted with sterilized Ringer's solution so as to have a protozoal number of 500×10^4 ml. Each 0.2 ml. portion (the protozoal number of 100×10^4) was inoculated to mice at subcutaneous sites of the back thereof wherein fur was previously removed.
4. Preparation of test samples: Each test compound was asceptically weighed, finely-divided in a sterilized mortar and then suspended in a 1% CMC solution to form suspensions of given concentrations.
5. Dose and administration: The SF-1540-A' was used at 3 dose levels: 50 mg./kg. (1 mg./0.2 ml./mouse/day), 25 mg./kg. (0.5 mg./0.2 ml./mouse/day) and 12.5 mg./kg. (0.25 mg./0.2 ml./mouse/day), while Flagyl as control was used at 2 dose levels: 25 mg./kg. (0.5 mg./0.2 ml./mouse/day) and 12.5 mg./kg. (0.25 mg./0.2 ml./mouse/day). After 24 hours from protozoa inoculation, the SF-1540-A' was given subcutaneously and Flagyl orally once a day for 6 days (Total, 6 times). As control, each 0.2 ml. portion of a 1% CMC solution was subcutaneously administered.
Formation of an abscess at a subcutaneous site of the back of a host animal was visually detectable for its protuberance after 48 hours from the protozoa inoculation.
Size of abscess was measured when sacrificed and cultivated to confirm effectiveness of the test compound after 24 hours from the 6 administrations.

## CN(CCC(N)CC(=O)NC1C=CC(n2ccc(N)nc2=O)OC1C(=O)O)C(=N)N (stereo not shown) [Blasticidin S]
[1]
  Preventive & curative value: 85%
[1]; after 5 days
  Average number of diseased spots per leaf: 3.6

## Cc1ncc([N+](=O)[O-])n1CCO [Flagyl, 1'-(2'-Hydroxyethyl)-2'-methyl-5'-nitroimidazole]
[2]; 12.5 mg./kg. orally
  difference from 1% CMC group (Tukey): significant at the 5% level of significance
[2]; 25 mg./kg. orally
  difference from 1% CMC group (Tukey): significant at the 1% level of significance
[2]; 25 mg./kg. orally once a day, after 3 administrations
  abscess, visual observation: a remarkable reduction in abscess
[2]; mouse, in vivo, po
  abscess at sacrifice, 24 hours after 6 administrations: abscess disappeared
  bulge upon sacrifice: only a slight bulge
